From patent US7511145B2 (Genelabs Technologies, Inc., priority 2003, dated 2009)

Target: T1, HCV-NS5b (Hepatitis C virus genotype 1b, UniProt Q9WMX2)
T1 construct: (His)6 (C); made in house; host or cells: XL-1 cells (E. coli), IPTG-inducible plasmid, nickel-NTA purification
Test: HCV-NS5b enzyme assay (incorporation of radiolabeled UTP)
Type: biochemical
Details: for inhibition at 33 µM: enzyme inhibition at compound concentration of 33 uM; for inhibition at 100 µM: read-out: % inh@100, enzyme inhibition at compound concentration of 100 uM
Text: The coding sequence of NS5b protein was cloned by PCR from pFKI389luc/NS3-3′/ET as described by Lohmann, V., et al. (1999) Science 285, 110-113 using the following primers: […]
The cloned fragment was missing the C terminus 21 amino acid residues. The cloned fragment was inserted into an IPTG-inducible expression plasmid that provided an epitope tag (His)6 at the carboxy terminus of the protein.
The recombinant enzyme was expressed in XL-1 cells and after induction of expression, the protein was purified using affinity chromatography on a nickel-NTA column. Storage condition was 10 mM Tris-HCl pH 7.5, 50 mM NaCl, 0.1 mM EDTA, 1 mM DTT, 20% glycerol at −20° C.
The polymerase activity was assayed by measuring incorporation of radiolabeled UTP into a RNA product using a biotinylated, heteropolymeric template, which included a portion of the HCV genome. Typically, the assay mixture (50 μL) contained 10 mM Tris-HCl (pH 7.5), 5 mM MgCl2, 0.2 mM EDTA, 10 mM KCl, 1 unit/μL RNAsin, 1 mM DTT, 10 μM each of NTP, including [^3H]-UTP, and 10 ng/μL heteropolymeric template. Test compounds were initially dissolved in 100% DMSO and further diluted in aqueous buffer containing 5% DMSO. Typically, compounds were tested at concentrations between 1 nM and 100 μM. Reactions were started with addition of enzyme and allowed to continue at 37° C. for 2 hours. Reactions were quenched with 8 μL of 100 mM EDTA and reaction mixtures (30 μL) were transferred to streptavidin-coated scintillation proximity microtiter plates (FlashPlates) and incubated at 4° C. overnight. Incorporation of radioactivity was determined by scintillation counting.
Shown in Table IX below are the values for enzyme inhibition measured at compound concentrations of 100 and 33 uM, (% inh@[…] and % inh@33, respectively). The percent inhibition values are calculated from the differential incorporation of radioactivity compared to a control reaction without compound: % inhibition=100−[(CountsINH−CountsBKG)/CountsCTRL−CountsBKG)×100 where CountsINH is the signal of the testwell with inhibitor, CountsBKG is the background signal and CountsCTRL is the signal of a testwell without inhibitor.

**Q.** With `O=C(O)c1ccc2c(c1)nc(-c1ccc3nc(-c4ccccc4)cnc3c1)n2C1CCCCC1` [Compound 203, 1-Cyclohexyl-2-(2-phenyl-quinoxalin-6-yl)-1H-benzoimidazole-5-carboxylic acid] as the molecule, how does the inhibition at 33 µM read?
**A.** 75%

**Q.** What about the inhibition at 100 µM of the same molecule?
**A.** 97.5%

**Q.** What does the source list for `O=C(O)c1ccc2c(c1)nc(-c1ccc3nc(-c4cc(C(=O)N5CCCC5)ccc4-c4ccc(Cl)cc4)ccc3c1)n2C1CCCCC1` [Compound 204, 2-{2-[4′-Chloro-4-(pyrrolidine-1-carbonyl)-biphen-2-yl]-quinolin-6-yl}-1-cyclohexyl-1H-benzoimidazole-5-carboxylic acid]?
**A.** inhibition at 33 µM: 99.7%; inhibition at 100 µM: 101%

**Q.** How did the inhibition at 33 µM turn out when `O=C(O)c1ccc2c(c1)nc(-c1ccc3ncc(-c4ccccc4)nc3c1)n2C1CCCCC1` [Compound 205, 1-Cyclohexyl-2-(3-phenyl-quinoxalin-6-yl)-1H-benzoimidazole-5-carboxylic acid] was run?
**A.** 84.4%

**Q.** And the inhibition at 100 µM?
**A.** 99%

**Q.** Which inhibition at 33 µM does the source give for `O=C(O)c1ccc2c(c1)nc(-c1ccc3ncc(-c4ccccc4)cc3c1)n2C1CCCCC1` [Compound 206, 1-Cyclohexyl-2-(3-phenyl-quinolin-6-yl)-1H-benzoimidazole-5-carboxylic acid] here?
**A.** 94.2%

**Q.** What about the inhibition at 100 µM of the same molecule?
**A.** 96.9%

**Q.** Which results are given for `O=C(O)c1ccc2c(c1)nc(-c1ccc3c(c1)CCC(c1ccccc1)N3)n2C1CCCCC1` (stereo not shown) [Compound 215, 1-Cyclohexyl-2-(2-phenyl-1,2,3,4-tetrahydro-quinolin-6-yl)-1H-benzoimidazole-5-carboxylic acid]?
**A.** inhibition at 33 µM: 99.2%; inhibition at 100 µM: 101%

**Q.** With `Cc1ccc2cc(-c3nc4cc(C(=O)N[C@@H](Cc5c[nH]c6ccc(O)cc56)C(=O)O)ccc4n3C3CCCCC3)ccc2n1` [Compound 230, 2-{[1-Cyclohexyl-2-(2-methyl-quinolin-6-yl)-1H-benzoimidazole-5-carbonyl]-amino}-3-(5-hydroxy-1H-indol-3-yl)-propionic acid] as the molecule, how does the inhibition at 33 µM read?
**A.** 92.7%

**Q.** What about the inhibition at 100 µM of the same molecule?
**A.** 98.2%

**Q.** `O=C(N[C@@H](CO)C(=O)O)c1ccc2c(c1)nc(-c1ccc3nc(-c4ccccc4)ccc3c1)n2C1CCCCC1` [Compound 231, 2-{[1-Cyclohexyl-2-(2-phenyl-quinolin-6-yl)-1H-benzoimidazole-5-carbonyl]-amino}-3-hydroxy-propionic acid] was tested. Which inhibition at 33 µM did it give?
**A.** 67%

**Q.** And the inhibition at 100 µM?
**A.** 97.5%

**Q.** `NCCCC[C@H](NC(=O)c1ccc2c(c1)nc(-c1ccc3nc(-c4ccccc4)ccc3c1)n2C1CCCCC1)C(=O)O` [Compound 232, 6-Amino-2-{[1-cyclohexyl-2-(2-phenyl-quinolin-6-yl)-1H-benzoimidazole-5-carbonyl]-amino}-hexanoic acid] was tested. Which inhibition at 33 µM did it give?
**A.** 60.5%

**Q.** What about the inhibition at 100 µM of the same molecule?
**A.** 80.2%

**Q.** For `O=C(O)[C@@H]1CCCN1C(=O)c1ccc2c(c1)nc(-c1ccc3nc(-c4ccccc4)ccc3c1)n2C1CCCCC1` [Compound 233, 1-[1-Cyclohexyl-2-(2-phenyl-quinolin-6-yl)-1H-benzoimidazole-5-carbonyl]-pyrrolidine-2-carboxylic acid], which inhibition at 33 µM is on record?
**A.** 50%

**Q.** What about the inhibition at 100 µM of the same molecule?
**A.** 88.2%

**Q.** How did the inhibition at 33 µM turn out when `O=C(N[C@@H](Cc1c[nH]c2ccc(O)cc12)C(=O)O)c1ccc2c(c1)nc(-c1ccc3nc(-c4ccccc4)cnc3c1)n2C1CCCCC1` [Compound 234, 2-{[1-Cyclohexyl-2-(2-phenyl-quinoxalin-6-yl)-1H-benzoimidazole-5-carbonyl]-amino}-3-(5-hydroxy-1H-indol-3-yl)-propionic acid] was run?
**A.** 98.6%

**Q.** What about the inhibition at 100 µM of the same molecule?
**A.** 100%

**Q.** What does the source list for `O=C(N[C@@H](Cc1c[nH]c2ccc(O)cc12)C(=O)O)c1ccc2c(c1)nc(-c1ccc3nc(-c4cc(C(=O)N5CCCC5)ccc4-c4ccc(Cl)cc4)ccc3c1)n2C1CCCCC1` [Compound 235, 2-[(2-{2-[4′-Chloro-4-(pyrrolidine-1-carbonyl)-biphen-2-yl]-quinolin-6-yl}-1-cyclohexyl-1H-benzoimidazole-5-carbonyl)-amino]-3-(5-hydroxy-1H-indol-3-yl)-propionic acid]?
**A.** inhibition at 33 µM: 99.1%; inhibition at 100 µM: 99.5%

**Q.** Which results are given for `O=C(N[C@@H](Cc1c[nH]c2ccc(O)cc12)C(=O)O)c1ccc2c(c1)nc(-c1ccc3ncc(-c4ccccc4)nc3c1)n2C1CCCCC1` [Compound 236, 2-{[1-Cyclohexyl-2-(3-phenyl-quinoxalin-6-yl)-1H-benzoimidazole-5-carbonyl]-amino}-3-(5-hydroxy-1H-indol-3-yl)-propionic acid]?
**A.** inhibition at 33 µM: 99.2%; inhibition at 100 µM: 99.2%

**Q.** `O=C(O)CC[C@H](NC(=O)c1ccc2c(c1)nc(-c1ccc3nc(-c4ccccc4)ccc3c1)n2C1CCCCC1)C(=O)O` [Compound 237, 2-{[1-Cyclohexyl-2-(2-phenyl-quinolin-6-yl)-1H-benzoimidazole-5-carbonyl]-amino}-pentanedioic acid] was tested. Which inhibition at 33 µM did it give?
**A.** 79.7%

**Q.** And the inhibition at 100 µM?
**A.** 95.6%

**Q.** Which results are given for `O=C(N[C@@H](Cc1c[nH]c2ccc(O)cc12)C(=O)O)c1ccc2c(c1)nc(-c1ccc3ncc(-c4ccccc4)cc3c1)n2C1CCCCC1` [Compound 238, 2-{[1-Cyclohexyl-2-(3-phenyl-quinolin-6-yl)-1H-benzoimidazole-5-carbonyl]-amino}-3-(5-hydroxy-1H-indol-3-yl)-propionic acid]?
**A.** inhibition at 33 µM: 97.6%; inhibition at 100 µM: 98.4%

**Q.** What does the source list for `O=C(O)CCNC(=O)c1ccc2c(c1)nc(-c1ccc3nc(-c4ccccc4)cnc3c1)n2C1CCCCC1` [Compound 239, 3-{[1-Cyclohexyl-2-(2-phenyl-quinoxalin-6-yl)-1H-benzoimidazole-5-carbonyl]-amino}-propionic acid]?
**A.** inhibition at 33 µM: 49.1%; inhibition at 100 µM: 70.2%

**Q.** With `O=C(N[C@@H](Cc1ccc(-c2ccccc2)cc1)C(=O)O)c1ccc2c(c1)nc(-c1ccc3nc(-c4ccccc4)cnc3c1)n2C1CCCCC1` [Compound 240, 3-Biphenyl-4-yl-2-{[1-cyclohexyl-2-(2-phenyl-quinoxalin-6-yl)-1H-benzoimidazole-5-carbonyl]-amino}propionic acid] as the molecule, how does the inhibition at 33 µM read?
**A.** 95.7%

**Q.** And the inhibition at 100 µM?
**A.** 96.1%

**Q.** For `O=C(N[C@@H](Cc1ccc(C(=O)c2ccccc2)cc1)C(=O)O)c1ccc2c(c1)nc(-c1ccc3nc(-c4ccccc4)cnc3c1)n2C1CCCCC1` [Compound 241, 3-(4-Benzoyl-phenyl)-2-{[1-cyclohexyl-2-(2-phenyl-quinoxalin-6-yl)-1H-benzoimidazole-5-carbonyl]-amino}-propionic acid], which inhibition at 33 µM is on record?
**A.** 98%

**Q.** And the inhibition at 100 µM?
**A.** 98.4%

**Q.** How did the inhibition at 33 µM turn out when `O=C(N[C@@H](CC1CCCCC1)C(=O)O)c1ccc2c(c1)nc(-c1ccc3nc(-c4ccccc4)cnc3c1)n2C1CCCCC1` [Compound 242, 3-Cyclohexyl-2-{[1-cyclohexyl-2-(2-phenyl-quinoxalin-6-yl)-1H-benzoimidazole-5-carbonyl]-amino}-propionic acid] was run?
**A.** 97.4%

**Q.** What about the inhibition at 100 µM of the same molecule?
**A.** 97%

**Q.** Which results are given for `O=C(N[C@H](C(=O)O)C1CCCCC1)c1ccc2c(c1)nc(-c1ccc3nc(-c4ccccc4)cnc3c1)n2C1CCCCC1` [Compound 243, Cyclohexyl-{[1-cyclohexyl-2-(2-phenyl-quinoxalin-6-yl)-1H-benzoimidazole-5-carbonyl]-amino}-acetic acid]?
**A.** inhibition at 33 µM: 96%; inhibition at 100 µM: 98.1%

**Q.** For `O=C(O)C[C@H](NC(=O)c1ccc2c(c1)nc(-c1ccc3nc(-c4ccccc4)cnc3c1)n2C1CCCCC1)C(=O)O` [Compound 244, 2-{[1-Cyclohexyl-2-(2-phenyl-quinoxalin-6-yl)-1H-benzoimidazole-5-carbonyl]-amino}-succinic acid], which inhibition at 33 µM is on record?
**A.** 75.7%

**Q.** And the inhibition at 100 µM?
**A.** 97%
